Results from patent US20230278972A1, “SUBSTITUTED HALOALKYL SULFONANILIDE HERBICIDES” (FMC Corporation, priority 2020, published 2023).

Experiments:
Type in all cases: in vivo
[1] = tested on: blackgrass (Alopecurus myosuroides); test: Test A1 preemergence, blackgrass
Procedure, shortened: (§1)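 Seeds were first planted into a blend of loam soil and sand and given a preemergence directed soil spray. In parallel, pots of the same soil were sown for postemergence application once plants reached 2 to 10 cm and the one- to two-leaf stage. Both used surfactant-containing non-phytotoxic solvent formulations.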

corn (Zea mays) [2] = test: Test A1 preemergence, corn
Procedure, shortened: as §1

[3] = tested on: Foxtail, Giant (giant foxtail, Setaria faberi); test: Test A1 preemergence, Foxtail, Giant
Procedure, shortened: as §1

[4] = tested on: goosegrass (Eleusine indica); test: Test A1 preemergence, goosegrass
Procedure, shortened: as §1

kochia (Bassia scoparia) [5] = test: Test A1 preemergence, kochia
Procedure, shortened: as §1

[6] = tested on: Oat, Wild (wild oat, Avena fatua); test: Test A1 preemergence, Oat, Wild
Procedure, shortened: as §1

[7] = tested on: Pigweed, Palmer (palmer amaranth, palmer pigweed, Amaranthus palmeri); test: Test A1 preemergence, Pigweed, Palmer
Procedure, shortened: as §1

[8] = tested on: ragweed (common ragweed, Ambrosia artemisiifolia); test: Test A1 preemergence, ragweed
Procedure, shortened: as §1

[9] = tested on: Ryegrass, Italian (Italian ryegrass, Lolium multiflorum); test: Test A1 preemergence, Ryegrass, Italian
Procedure, shortened: as §1

soybean (Glycine max) [10] = test: Test A1 preemergence, soybean
Procedure, shortened: as §1

[11] = tested on: wheat (Triticum aestivum); test: Test A1 preemergence, wheat
Procedure, shortened: as §1

[12] = tested on: blackgrass (Alopecurus myosuroides); test: Test A1 postemergence, blackgrass; conditions: 0 to 100 scale (0 no effect, 100 complete control); for Plant response rating, Blackgrass: Postemergence
Procedure, shortened: (§2)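 Test compounds were formulated in a non-phytotoxic solvent mixture containing a surfactant. For preemergence, seeds sown in a loam soil–sand blend received a directed soil spray. For postemergence, potted plants in the same soil, 2 to 10 cm tall at the one- to two-leaf stage, were sprayed.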

corn (Zea mays) [13] = test: Test A1 postemergence, corn; conditions: for Plant response rating, Corn: Postemergence
Procedure, shortened: as §1

[14] = tested on: Foxtail, Giant (giant foxtail, Setaria faberi); test: Test A1 postemergence, Foxtail, Giant; conditions: for Plant response rating, Foxtail, Giant: Postemergence
Procedure, shortened: as §2

[15] = tested on: goosegrass (Eleusine indica); test: Test A1 postemergence, goosegrass; conditions: for Plant response rating, Goosegrass: Postemergence
Procedure, shortened: as §2

kochia (Bassia scoparia) [16] = test: Test A1 postemergence, kochia; conditions: for Plant response rating, Kochia: Postemergence
Procedure, shortened: as §2

[17] = tested on: Oat, Wild (wild oat, Avena fatua); test: Test A1 postemergence, Oat, Wild; conditions: for Plant response rating, Oat, Wild: Postemergence
Procedure, shortened: as §1

[18] = tested on: Pigweed, Palmer (palmer amaranth, palmer pigweed, Amaranthus palmeri); test: Test A1 postemergence, Pigweed, Palmer; conditions: for Plant response rating, Pigweed, Palmer: Postemergence
Procedure, shortened: as §1

[19] = tested on: ragweed (common ragweed, Ambrosia artemisiifolia); test: Test A1 postemergence, ragweed; conditions: for Plant response rating, Ragweed: Postemergence
Procedure, shortened: as §1

[20] = tested on: Ryegrass, Italian (Italian ryegrass, Lolium multiflorum); test: Test A1 postemergence, Ryegrass, Italian; conditions: for Plant response rating, Ryegrass, Italian: Postemergence
Procedure, shortened: as §2

soybean (Glycine max) [21] = test: Test A1 postemergence, soybean; conditions: for Plant response rating, Soybean: Postemergence
Procedure, shortened: as §2

[22] = tested on: wheat (Triticum aestivum); test: Test A1 postemergence, wheat; conditions: for Plant response rating, Wheat: Postemergence
Procedure, shortened: as §2

[23] = tested on: galium (catchweed bedstraw, Galium aparine); test: Test A1 postemergence, galium; conditions: for Plant response rating, Galium: Postemergence
Procedure, shortened: as §2

[24] = tested on: horseweed (Erigeron canadensis); test: Test A1 postemergence, horseweed; conditions: for Plant response rating, Horseweed: Postemergence
Procedure, shortened: as §2

[25] = tested on: barnyardgrass (Echinochloa crus-galli); test: Test B1 flooded paddy test, barnyardgrass; conditions: 250 g ai/ha, Flood, applied to paddy water, 2-leaf stage, visually evaluated after 10 to 14 days
Source text: (§3) A dash (-) response means no test result.

[26] = tested on: ducksalad (Heteranthera limosa); test: Test B1 flooded paddy test, ducksalad; conditions: 250 g ai/ha, Flood, applied to paddy water, 2-leaf stage, visually evaluated after 10 to 14 days
Source text: as §3

rice (Oryza sativa) = test: Test B1 flooded paddy test, rice; conditions: 250 g ai/ha, Flood, applied to paddy water, 2-leaf stage, visually evaluated after 10 to 14 days
Source text: as §3

[27] = 31 g ai/ha, 0 to 100 scale (0 no effect, 100 complete control)
[28] = 125 g ai/ha, 0 to 100 scale, 0 no effect, 100 complete control
[29] = 31 g ai/ha, postemergence, 0 to 100 scale (0 no effect, 100 complete control)
[30] = 125 g ai/ha, 0 to 100 scale (0 no effect, 100 complete control), 10 days
[31] = 31 g ai/ha, 0 to 100 scale (0 no effect, 100 complete control), 10 days

Cc1cc(C)c(N2CCC3(CCC(C(F)(F)F)CC3)C2=O)cc1NS(=O)(=O)C(F)(F)F (stereo not drawn) [Compound 400]
Plant response rating, Blackgrass [1, 27]: 20
Plant response rating, Blackgrass [1, 28]: 80
Plant response rating, Corn (corn (Zea mays) [2]; [27]): 0
Plant response rating, Corn (corn (Zea mays) [2]; [28]): 20
Plant response rating, Foxtail, Giant [3, 27]: 20
Plant response rating, Foxtail, Giant [3, 28]: 90
Plant response rating, Goosegrass [4, 27]: 90
Plant response rating, Goosegrass [4, 28]: 100
Plant response rating, Kochia (kochia (Bassia scoparia) [5]; [27]): 0
Plant response rating, Kochia (kochia (Bassia scoparia) [5]; [28]): 20
Plant response rating, Oat, Wild [6, 27]: 50
Plant response rating, Oat, Wild [6, 28]: 90
Plant response rating, Pigweed, Palmer [7, 27]: 50
Plant response rating, Pigweed, Palmer [7, 28]: 100
Plant response rating, Ragweed [8, 27]: 70
Plant response rating, Ragweed [8, 28]: 90
Plant response rating, Ryegrass, Italian [9, 27]: 60
Plant response rating, Ryegrass, Italian [9, 28]: 90
Plant response rating, Soybean (soybean (Glycine max) [10]; [27]): 50
Plant response rating, Soybean (soybean (Glycine max) [10]; [28]): 50
Plant response rating, Wheat [11, 27]: 10
Plant response rating, Wheat [11, 28]: 80
Blackgrass plant response rating ([12]; 31 g ai/ha, postemergence): 0
Plant response rating, Blackgrass ([12]; 125 g ai/ha, 10 days): 30
Corn plant response rating (corn (Zea mays) [13]; [29]): 0
Plant response rating, Corn (corn (Zea mays) [13]; [30]): 0
Foxtail, Giant plant response rating [14, 29]: 0
Plant response rating, Foxtail, Giant [14, 30]: 0
Goosegrass plant response rating [15, 29]: 10
Plant response rating, Goosegrass [15, 30]: 80
Kochia plant response rating (kochia (Bassia scoparia) [16]; [29]): 20
Plant response rating, Kochia (kochia (Bassia scoparia) [16]; [30]): 70
Oat, Wild plant response rating [17, 29]: 0
Plant response rating, Oat, Wild [17, 30]: 0
Pigweed, Palmer plant response rating [18, 29]: 20
Plant response rating, Pigweed, Palmer [18, 30]: 70
Ragweed plant response rating [19, 29]: 30
Plant response rating, Ragweed [19, 30]: 80
Ryegrass, Italian plant response rating [20, 29]: 0
Plant response rating, Ryegrass, Italian [20, 30]: 0
Soybean plant response rating (soybean (Glycine max) [21]; [29]): 50
Plant response rating, Soybean (soybean (Glycine max) [21]; [30]): 60
Wheat plant response rating [22, 29]: 30
Plant response rating, Wheat [22, 30]: 30
Galium plant response rating [23, 29]: 80
Plant response rating, Galium [23, 30]: 100
Horseweed plant response rating [24, 29]: 30
Plant response rating, Horseweed [24, 30]: 80
Plant response rating, Barnyardgrass (0 to 100 scale, 0 is no effect, 100 is complete control) [25]: 20
Plant response rating, Ducksalad (0 to 100 scale, 0 is no effect, 100 is complete control) [26]: 55
Plant response rating, Rice (0 to 100 scale, 0 is no effect, 100 is complete control) (rice (Oryza sativa)): 25

Cc1c(C(=O)N2CCOCC2)cc(NS(=O)(=O)C(F)(F)F)c(Cl)c1F [Compound 321]
Plant response rating, Blackgrass [1, 27]: 0
Plant response rating, Blackgrass [1, 28]: 70
Plant response rating, Corn (corn (Zea mays) [2]; [27]): 0
Plant response rating, Corn (corn (Zea mays) [2]; [28]): 30
Plant response rating, Foxtail, Giant [3, 27]: 30
Plant response rating, Foxtail, Giant [3, 28]: 100
Plant response rating, Goosegrass [4, 27]: 70
Plant response rating, Goosegrass [4, 28]: 100
Plant response rating, Kochia (kochia (Bassia scoparia) [5]; [27]): 80
Plant response rating, Kochia (kochia (Bassia scoparia) [5]; [28]): 90
Plant response rating, Oat, Wild [6, 27]: 0
Plant response rating, Oat, Wild [6, 28]: 50
Plant response rating, Pigweed, Palmer [7, 27]: 90
Plant response rating, Pigweed, Palmer [7, 28]: 100
Plant response rating, Ragweed [8, 27]: 50
Plant response rating, Ragweed [8, 28]: 90
Plant response rating, Ryegrass, Italian [9, 27]: 60
Plant response rating, Ryegrass, Italian [9, 28]: 60
Plant response rating, Soybean (soybean (Glycine max) [10]; [27]): 60
Plant response rating, Soybean (soybean (Glycine max) [10]; [28]): 60
Plant response rating, Wheat [11, 27]: 0
Plant response rating, Wheat [11, 28]: 80
Plant response rating, Blackgrass ([12]; 31 g ai/ha, 10 days): 10
Plant response rating, Blackgrass ([12]; 125 g ai/ha): 10
Plant response rating, Corn (corn (Zea mays) [13]; [31]): 10
Plant response rating, Corn (corn (Zea mays) [13]; 125 g ai/ha, 0 to 100 scale): 20
Plant response rating, Foxtail, Giant [14, 31]: 0
Plant response rating, Foxtail, Giant ([14]; 125 g ai/ha, 0 to 100 scale): 0
Plant response rating, Goosegrass [15, 31]: 0
Plant response rating, Goosegrass ([15]; 125 g ai/ha, 0 to 100 scale): 80
Plant response rating, Kochia (kochia (Bassia scoparia) [16]; [31]): 40
Plant response rating, Kochia (kochia (Bassia scoparia) [16]; 125 g ai/ha, 0 to 100 scale): 80
Plant response rating, Oat, Wild [17, 31]: 0
Plant response rating, Oat, Wild ([17]; 125 g ai/ha, 0 to 100 scale): 10
Plant response rating, Pigweed, Palmer [18, 31]: 50
Plant response rating, Pigweed, Palmer ([18]; 125 g ai/ha, 0 to 100 scale): 70
Plant response rating, Ragweed [19, 31]: 90
Plant response rating, Ragweed ([19]; 125 g ai/ha, 0 to 100 scale): 90
Plant response rating, Ryegrass, Italian [20, 31]: 30
Plant response rating, Ryegrass, Italian ([20]; 125 g ai/ha, 0 to 100 scale): 40
Plant response rating, Soybean (soybean (Glycine max) [21]; [31]): 20
Plant response rating, Soybean (soybean (Glycine max) [21]; 125 g ai/ha, 0 to 100 scale): 40
Plant response rating, Wheat [22, 31]: 0
Plant response rating, Wheat ([22]; 125 g ai/ha, 0 to 100 scale): 10
Plant response rating, Galium [23, 31]: 100
Plant response rating, Galium ([23]; 125 g ai/ha, 0 to 100 scale): 100
Plant response rating, Horseweed [24, 31]: 70
Plant response rating, Horseweed ([24]; 125 g ai/ha, 0 to 100 scale): 80
Plant response rating, Barnyardgrass (0 to 100 scale, 0 is no effect, 100 is complete control) [25]: 15
Plant response rating, Ducksalad (0 to 100 scale, 0 is no effect, 100 is complete control) [26]: 95
Plant response rating, Rice (0 to 100 scale, 0 is no effect, 100 is complete control) (rice (Oryza sativa)): 10
